The values below are quoted from earlier work in US20110105330A1, “C[…]” (priority 2009, published 2011).

For this data set the following is noted: ph 1.9, 20° C.

As to `O=C(O)CNCP(=O)(O)O` [Glyphosate, n-(phosphonomethyl) glycine], the solubility in water entry was “approximately 10.5 g/L”.
